Legend:
[1] = target: T1, CC chemokine receptor 4 (CCR4) (Mus musculus, UniProt P51680); assay: inhibition of CCL22-driven chemotaxis of mouse iTreg in […] serum; format: cell-based
T1 sequence (P51680 1-360): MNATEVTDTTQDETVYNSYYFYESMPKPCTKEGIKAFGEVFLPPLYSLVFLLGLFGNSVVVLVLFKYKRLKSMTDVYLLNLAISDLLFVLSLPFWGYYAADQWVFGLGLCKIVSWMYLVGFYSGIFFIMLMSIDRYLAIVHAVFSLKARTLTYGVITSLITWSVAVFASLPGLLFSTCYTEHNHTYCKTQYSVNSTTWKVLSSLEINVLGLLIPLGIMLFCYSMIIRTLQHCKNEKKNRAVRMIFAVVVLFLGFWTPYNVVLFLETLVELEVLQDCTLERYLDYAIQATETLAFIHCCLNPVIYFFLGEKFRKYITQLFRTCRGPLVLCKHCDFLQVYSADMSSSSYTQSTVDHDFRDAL

[2] = target: T2, CC chemokine receptor 4 (CCR4) (Homo sapiens, UniProt P51679); assay: inhibition of CCL22-driven chemotaxis of human iTreg in […] serum; format: cell-based
T2 sequence (P51679 1-360): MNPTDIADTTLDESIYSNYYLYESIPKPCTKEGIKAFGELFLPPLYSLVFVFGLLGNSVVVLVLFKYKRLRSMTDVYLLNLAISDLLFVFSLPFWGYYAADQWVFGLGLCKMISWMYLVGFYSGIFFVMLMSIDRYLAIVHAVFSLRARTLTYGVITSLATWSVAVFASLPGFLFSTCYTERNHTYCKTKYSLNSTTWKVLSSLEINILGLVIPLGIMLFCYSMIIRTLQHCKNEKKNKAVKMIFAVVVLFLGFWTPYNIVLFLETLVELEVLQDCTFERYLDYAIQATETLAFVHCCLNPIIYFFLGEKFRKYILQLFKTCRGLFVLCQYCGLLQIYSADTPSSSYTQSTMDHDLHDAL

- IC50 [1]: ~0.04 µM
- IC50 [2]: ~0.04 µM
Compound: C[C@H](c1ccc(Cl)cc1Cl)n1nc(C#N)c2ncc(N3CC([C@H]4CCCN(CCO)C4)C3)nc21 [CCR4-351]
